Molecular target: Polyunsaturated fatty acid 5-lipoxygenase (Cavia porcellus)
Experiment: Inhibition of [14C]arachidonic acid conversion to 5-HETE by broken cell 5-LO isolated from guinea pig PMN

SMILES	IC50 [nM]
O=c1c2c([nH]n1CCOc1ccc3ccccc3c1)CCCC2 [2-[2-(Naphthalen-2-yloxy)-ethyl]-2,3a,4,5,6,7-hexahydro-indazol-3-one]	310
O=c1c2c([nH]n1CCOc1ccc3ccccc3c1)CCC2 [2-[2-(Naphthalen-2-yloxy)-ethyl]-3a,4,5,6-tetrahydro-2H-cyclopentapyrazol-3-one]	480
Cc1cc(=O)n(CCOc2ccc3c(c2)Nc2ccccc2S3)[nH]1 [5-Methyl-2-[2-(10H-phenothiazin-2-yloxy)-ethyl]-2,4-dihydro-pyrazol-3-one]	57

— BindingDB's records for doi:10.1016/S0960-894X(00)80655-1 (1992)
